Experimental data from US5153218A, “N,N',N'-trisubstituted-bis-amino-3-methylene-2,4(3H,5H)-furandione inhibitors of acyl-CoA:cholesterol-acyl transferase” (American Home Products Corporation, priority 1991, dated 1992).
Like-named read-outs stand apart in the source and are kept apart here.

Assays:
[1] = system: acyl-coenzyme A: cholesterol acyltransferase; test: inhibition of acyl-coenzyme A: cholesterol acyltransferase in vitro (intracellular cholesterol esterification, procedure of Ross et al.); type: cell-based; conditions: for percent inhibition at a single concentration: unit assumed
Description: The ability of the compounds of this invention to inhibit acyl-coenzyme A: cholesterol acyltransferase was established in vitro by initially showing that they inhibited intracellular cholesterol esterification by subjecting them to the standard experimental test procedure of Ross et al., J. Biol. Chem. 259 815 (1984).

Plasma Cholesterol = test: in vivo decrease of plasma cholesterol in cholesterol-cholic acid fed rats; conditions: oral gavage, four days
Method: In addition, representative compounds were studied in vivo in cholesterol-cholic acid fed rats to determine the percent decrease of cholesterol in their plasma. This study involves rats which are, prior to testing, trained for one week to eat over a four hour time period each day. Upon initiation of the experiment, the rats diet is supplemented with 1.0 percent cholesterol and 0.25 percent cholic acid. The rats are dosed with the test compound by oral gavage just prior to and just following the four hour feeding period. This is repeated for four days. On the fifth day, the rats are sacrificed and the total plasma cholesterol content is determined. The percent decrease in elevated plasma cholesterol levels is calculated in comparison with normal-fed controls.

[2] = system: 14C-Cholesterol Absorption; conditions: po
Method: Representative compounds were further tested in vivo to establish the percent inhibition of cholesterol absorption. In this study, normal rats were dosed (oral gavage) with ^14 C-cholesterol plus the test compound. Blood samples taken at six hours and/or intermittently up to twenty-four hours were analyzed and the percent inhibition of cholesterol absorption was calculated.

SMILES | IC50 [1] [µM] | percent inhibition at a single concentration ([1]; Conc. 25 mM (so in the source)) [%] | percent inhibition at a single concentration ([1]; Conc. 50 mM (so in the source)) [%] | also measured
CCCCCCC(C)N(Cc1ccc(CC(C)(C)C)cc1)C(Nc1cc(C(C)(C)C)c(O)c(C(C)(C)C)c1)=C1C(=O)COC1=O (centres unmarked) [Example 22, 3-[[[3,5-Bis(1,1-dimethylethyl)-4-hydroxyphenyl]amino][[[4-(2,2-dimethylpropyl)phenyl]methyl](1-methylheptyl)amino]methylene]-2,4(3H,5H)-furandione] | 0.07 | 97 |  | % Decrease in Plasma Cholesterol (Plasma Cholesterol; 20 mg/kg): -80%
CCCCCCCN(Cc1ccc(C(C)(C)C)cc1)C(Nc1c(C)cc(N(C)C)cc1C)=C1C(=O)COC1=O [Example 19] | 9.5 | 77 |  | 
CCCCCCCN(Cc1ccc(C(C)(C)C)cc1)C(Nc1ccc(OC)cc1OC)=C1C(=O)COC1=O [Example 3] | 4 |  | 90 | 
CCCCCCCN(Cc1ccc(CC(C)(C)C)cc1)C(Nc1c(OC)cc(OC)cc1OC)=C1C(=O)COC1=O [Example 5, 3-[[[4-(2,2-Dimethylpropyl)phenylmethyl]heptylamino][(2,4,6-trimethoxyphenyl)amino]methylene]-2,4(3H,5H)-furandione] | 11 | 67 |  | 
CCCCCCCC/C=C\CCCCCCCCNC(Nc1ccc(OC)cc1OC)=C1C(=O)COC1=O [Example 4, 3-[[(2,4-Dimethoxyphenyl)amino]((Z)-9-octadecenylamino)methylene]-2,4(3H,5H)-furandione] |  |  | 63 | % Inhibition of Absorption ([2]; 200 mg/kg): -14%
CCCCCCCN(Cc1ccc(CCCCCC)cc1)C(Nc1ccc(C(F)(F)F)cc1)=C1C(=O)COC1=O [Example 16, 3-[[Heptyl[(4-hexylphenyl)methyl]amino][[4-(trifluoromethyl)phenyl]amino]methylene]-2,4(3H,5H)-furandione] |  | 56 |  | 
CCCCCCCN(Cc1ccc(C(C)(C)C)cc1)C(Nc1ccc(-c2ccccc2)cc1)=C1C(=O)COC1=O [Example 13, 3-[([1,1'-Biphenyl]-4-ylamino)[[[4-(1,1-dimethylethyl)phenyl]methyl]heptylamino]methylene]-2,4(3H,5H)-furandione] | 12 |  | 91 | 
CCCCCC(C)N(Cc1ccc(OCCC(C)C)cc1)C(Nc1ccc(OC)cc1OC)=C1C(=O)COC1=O (centres unmarked) [Example 21, 3-[[(2,4-Dimethoxyphenyl)amino][[[4-(3-methylbutoxy)phenyl]methyl](1-methylhexyl)amino]methylene]-2,4(3H,5H)-furandione] | 4.9 | 97 |  | % Decrease in Plasma Cholesterol (Plasma Cholesterol; 20 mg/kg): -23%
CCCCCCN(CCCCCC)C(Nc1ccc(OC)cc1OC)=C1C(=O)COC1=O [Example 9, 3-[(Dihexylamino)[(2,4-dimethoxyphenyl)amino]methylene]-2,4(3H,5H)-furandione] | 25 |  | 87 | 
CCCCCCN(CCCCCC)C(Nc1ccc(F)cc1)=C1C(=O)COC1=O [Example 2, 3-[(Dihexylamino)[(4-fluorophenyl)amino]methylene]-2,4(3H,5H)furandione] |  |  | 57 | 
CCCCCCN(CCCCCC)C(Nc1ccc(-c2ccccc2)cc1)=C1C(=O)COC1=O [Example 12, 3-[([1,1'-Biphenyl]-4-ylamino)(dihexylamino)methylene]-2,4(3H,5H)-furandione] | 27 |  | 90 | 
CCCCCCCC/C=C\CCCCCCCCN(Cc1ccc(C(C)(C)C)cc1)C(Nc1ccc(F)cc1)=C1C(=O)COC1=O [Example 18, 3-[[[[4-(1,1-Dimethylethyl)phenyl]methyl]((Z)-9-octadecenyl)amino][(4-fluorophenyl)amino]methylene]-2,4(3H,5H)-furandione] |  | 44 |  | 
CCCCCCCN(Cc1ccc(C(C)(C)C)cc1)C(Nc1ccc(Cl)cc1)=C1C(=O)COC1=O [Example 17, 3-[[(4-Chlorophenyl)amino][[[4-(1,1-dimethylethyl)phenyl]methyl]heptylamino]methylene]-2,4(3H,5H)-furandione] | 24 | 84 |  | 
CCCCCCCC/C=C\CCCCCCCCNC(Nc1ccc(F)cc1)=C1C(=O)COC1=O [Example 10, 3-[[(4-Fluorophenyl)amino]((Z)-9-octadecenylamino)methylene]2,4(3H,5H)-furandione] | > 30 |  | 61 | 
CCCCCCCN(Cc1ccc(C(C)(C)C)cc1)C(Nc1ccc(F)cc1)=C1C(=O)COC1=O [Example 1, 3-[[[[4-(1,1-Dimethylethyl)phenyl]methyl]heptylamino][(4-fluorophenyl)amino]methylene]-2,4(3H,5H)-furandione] | 6 |  | 96 | % Inhibition of Absorption ([2]; 200 mg/kg): -74%
COc1ccc(NC(=C2C(=O)COC2=O)N(CCc2ccccc2)Cc2ccccc2)c(OC)c1 [Example 11, 3-[[(2,4-Dimethoxyphenyl)amino][(2-phenylethyl)(phenylmethyl)amino]methylene]-2,4(3H,5H)-furandione] | > 30 |  | 72 | 
CCCCCC(C)N(Cc1ccc(C(C)(C)C)cc1)C(Nc1ccc(OC)cc1OC)=C1C(=O)COC1=O (centres unmarked) [Example 20, 3-[[(2,4-Dimethoxyphenyl)amino][[[4-(1,1-dimethylethyl)phenyl]methyl](1-methylhexyl)amino]methylene]-2,4(3H,5H)-furandione] | 1.5 | 94 |  | 
CCCCCCCN(Cc1ccc(OCCC(C)C)cc1)C(Nc1ccc(OC)cc1OC)=C1C(=O)COC1=O [Example 6, 3-[[(2,4-Dimethoxyphenyl)amino][(heptyl)[[4-(3-methylbutoxy)phenyl]methyl]amino]methylene]-2,4(3H,5H)-furandione] | 0.4 | 99 |  | 
CCCCCCCN(Cc1ccc(C(C)(C)C)cc1)C(Nc1c(C)cc(C)cc1C)=C1C(=O)COC1=O [Example 15, 3-[[[[4-(1,1-Dimethylethyl)phenyl]methyl]heptylamino][(2,4,6-trimethylphenyl)amino]methylene]-2,4(3H,5H)-furandione] |  | 73 |  | 
CCCCCCN(Cc1ccc(CC(C)C)cc1)C(Nc1cc(C(C)(C)C)c(O)c(C(C)(C)C)c1)=C1C(=O)COC1=O [Example 23] |  | 88 |  | 
CCCCCCCN(Cc1ccc(C(C)(C)C)cc1)C(Nc1ccc(F)cc1F)=C1C(=O)COC1=O [Example 14, 3-[[(2,4-Difluorophenyl)amino][[[4-(1,1-dimethylethyl)phenyl]methyl]heptylamino]methylene]-2,4(3H,5H)-furandione] |  | 39 |  | 
CCCCCC(C)N(Cc1ccc(CC(C)(C)C)cc1)C(Nc1ccc(OC)cc1OC)=C1C(=O)COC1=O (centres unmarked) [Example 7, 3-[[(2,4-Dimethoxyphenyl]amino][[[4-(2,2-dimethylpropyl)phenyl]methyl](1-methylhexyl)-amino]methylene]2,4(3H,5H)-furandione] | 0.92 | 98 |  | % Inhibition of Absorption ([2]; 20 mg/kg): -62%; % Decrease in Plasma Cholesterol (Plasma Cholesterol; 40 mg/kg): -26%
CCCCCC(C)N(Cc1ccc(CC(C)(C)C)cc1)C(Nc1cc(C(C)(C)C)c(O)c(C(C)(C)C)c1)=C1C(=O)COC1=O (centres unmarked) [Example 8] | 0.19 | 99 |  | % Inhibition of Absorption ([2]; 20 mg/kg): -72%; % Decrease in Plasma Cholesterol (Plasma Cholesterol; 20 mg/kg): -71%
